Among the data in patent publication US20230062100A1, “SUBSTITUTED AMINOQUINOLONES AS DGKALPHA INHIBITORS FOR IMMUNE ACTIVATION” (Bayer Aktiengesellschaft, priority 2019, published 2023) are IC50 values, retold here.

SMILES strings stand for the structures.

Chain of DGKα (P23743 with tags, fused parts or gaps): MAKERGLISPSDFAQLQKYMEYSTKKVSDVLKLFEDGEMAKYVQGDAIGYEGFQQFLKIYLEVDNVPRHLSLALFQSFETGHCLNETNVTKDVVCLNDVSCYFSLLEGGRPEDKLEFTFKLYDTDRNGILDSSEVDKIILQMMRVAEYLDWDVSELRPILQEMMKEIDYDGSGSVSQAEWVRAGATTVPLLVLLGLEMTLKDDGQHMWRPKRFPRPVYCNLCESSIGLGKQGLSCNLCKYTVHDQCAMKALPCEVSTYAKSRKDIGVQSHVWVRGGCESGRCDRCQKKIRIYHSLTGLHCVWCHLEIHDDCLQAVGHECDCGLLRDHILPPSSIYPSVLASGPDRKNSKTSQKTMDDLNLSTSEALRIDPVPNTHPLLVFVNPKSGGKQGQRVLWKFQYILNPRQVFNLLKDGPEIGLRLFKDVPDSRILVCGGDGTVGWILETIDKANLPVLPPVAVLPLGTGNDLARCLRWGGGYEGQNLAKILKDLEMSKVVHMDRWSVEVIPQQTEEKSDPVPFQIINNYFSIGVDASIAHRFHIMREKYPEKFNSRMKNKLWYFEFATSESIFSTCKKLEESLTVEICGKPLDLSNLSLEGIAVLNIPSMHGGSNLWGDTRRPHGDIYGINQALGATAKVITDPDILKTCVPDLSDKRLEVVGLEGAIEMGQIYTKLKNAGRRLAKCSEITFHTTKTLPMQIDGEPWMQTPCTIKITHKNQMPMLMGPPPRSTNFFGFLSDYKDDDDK

The target of this assay is DGKα (Homo sapiens, UniProt P23743). The assay is described as follows: Human DGKα kinase activity inhibition assay (ADP-Glo). Type of assay: biochemical. Particulars: in vitro human DGKα kinase activity inhibition assay. The procedure:
Human DGKα inhibitory activity of compounds of the present invention was quantified employing the human DGKα kinase activity assay as described in the following paragraphs. In essence, the enzyme activity was measured by quantification of the adenosine-di-phosphate (ADP) generated as a co-product of the enzyme reaction via the “ADP-Glo™ Kinase Assay” kit from the company Promega. This detection system works as follows: In a first step the ATP not consumed in the kinase reaction is quantitatively converted to cAMP employing an adenylate cyclase (“ADP-Glo-reagent”), then the adenylate cyclase is stopped and the ADP generated in the kinase reaction converted to ATP, which subsequently generates in a luciferase-based reaction a glow-luminescence signal (“Kinase Detection Reagent”). C-terminally FLAG-tagged, recombinant full-length human DGKα (expressed in baculovirus infected insect cells, purified using anti-Flag pulldown and size exclusion chromatography as described below, DGKα_hu_1) was used as enzyme. As substrate for the kinase 1,2-dioleoyl-sn-glycerol, reconstituted in octyl-β-D-glucopyranoside micelles, was used. For the preparation of the micelles, 1 volume of a 16.1 mM solution of 1,2-dioleoyl-sn-glycerol (Avanti, Cat. #O8001-25G) in chloroform was slowly evaporated using a nitrogen stream. Subsequently, 22.55 volumes of a 510 mM solution of octyl-β-D-glucopyranoside (Sigma-Aldrich, Cat. #O8001-10G) in 50 mM MOPS buffer (pH 7.4) were added, and the mixture was sonicated in an ultrasonic bath for 20 s. Then 35 volumes of 50 mM MOPS buffer (pH 7.4) were added to yield a solution of 0.28 mM 1,2 dioleoyl-sn-glycerol and 200 mM octyl-β-D-glucopyranoside, which was aliquoted, flash-frozen in liquid nitrogen, and stored at −20° C. until use. For each experiment, a fresh aliquot was quickly thawed and diluted 24-fold with aqueous assay buffer (described below) containing 95.7 μM adenosine triphosphate (Promega) to yield a 1.67-fold concentrated substrate solution. For the assay 50 nl of a 100-fold concentrated solution of the test compound in dimethyl sulfoxide (DMSO, Sigma) was pipetted into either a white 1536-well or a white low-volume 384-well microtiter plate (both Greiner Bio-One, Frickenhausen, Germany). […] The concentration of DGK a was adjusted depending of the activity of the enzyme lot and was chosen appropriate to have the assay in the linear range, a typical concentration is about 0.1 nM. The reaction was stopped by the addition of 2.5 μl of “ADP-Glo-reagent” (1 to 1.5 diluted with water) and the resulting mixture was incubated at 22° C. for 1 h to convert the ATP not consumed in the kinase reaction completely to cAMP. […] The amount of emitted light was taken as a measure for the amount of ADP generated and thereby for the activity of the DGKα.
As usually defined, the IC50 is the midpoint of a concentration-inhibition curve. In turn, `Cn1ccn(-c2ccc(OC3CCN(c4c(C#N)c(=O)n(C)c5ccccc45)CC3)cc2)c1=O` [Example 25, 1-methyl-4-{4-[4-(3-methyl-2-oxo-2,3-dihydro-1H-imidazol-1-yl)phenoxy]piperidin-1-yl}-2-oxo-1,2-dihydroquinoline-3-carbonitrile] showed an IC50 of 283 nM.
Turning to `Cc1ccc(OC2CCN(c3c(C#N)c(=O)n(C)c4ccccc34)CC2)cc1` [Example 1, 1-methyl-4-[4-(4-methylphenoxy)piperidin-1-yl]-2-oxo-1,2-dihydroquinoline-3-carbonitrile], half-maximal inhibition (IC50) was put at 4.2 nM.
`CN(C)C(=O)c1ccc(OC2CCN(c3c(C#N)c(=O)n(C)c4ccccc34)CC2)cc1` [Example 26, 4-{[1-(3-cyano-1-methyl-2-oxo-1,2-dihydroquinolin-4-yl)piperidin-4-yl]oxy}-N,N-dimethylbenzamide]: half-maximal inhibition (IC50) was put at 415 nM.
Molecule `COc1ccc2c(N3CCC(Sc4ccccc4)CC3)c(C#N)c(=O)n(C)c2c1` [Example 90, 7-methoxy-1-methyl-2-oxo-4-[4-(phenylsulfanyl)piperidin-1-yl]-1,2-dihydroquinoline-3-carbonitrile] returned an IC50 of 1.7 nM.
For `Cn1c(=O)c(C#N)c(N2CCC(Oc3ccc(OC(F)(F)F)cc3)CC2)c2cc(Cl)ccc21` [Example 157, 6-chloro-1-methyl-2-oxo-4-{4-[4-(trifluoromethoxy)phenoxy]piperidin-1-yl}-1,2-dihydroquinoline-3-carbonitrile], half-maximal inhibition (IC50) was put at 1240 nM.
Turning to `Cn1c(=O)c(C#N)c(N2CCC(Oc3ccc(OC(F)(F)F)cc3)CC2)c2cc(Br)ccc21` [Example 139, 6-bromo-1-methyl-2-oxo-4-{4-[4-(trifluoromethoxy)phenoxy]piperidin-1-yl}-1,2-dihydroquinoline-3-carbonitrile], inhibition was half-maximal at 2.5 nM (IC50).
In turn, `Cn1c(=O)c(C#N)c(N2CCC(Oc3ccc(Cl)cc3)CC2)c2ccccc21` [Example 10, 4-[4-(4-chlorophenoxy)piperidin-1-yl]-1-methyl-2-oxo-1,2-dihydroquinoline-3-carbonitrile] gave an IC50 of 10 nM.
`Cn1c(=O)c(C(N)=O)c(N2CCC(Oc3ccc(OC(F)(F)F)cc3)CC2)c2ccc(F)cc21` [Example 99, 7-fluoro-1-methyl-2-oxo-4-{4-[4-(trifluoromethoxy)phenoxy]piperidin-1-yl}-1,2-dihydroquinoline-3-carboxamide] yielded an IC50 of 1.2 nM.
In the case of `CCOC(=O)c1ccc(OC2CCN(c3c(C#N)c(=O)n(C)c4ccccc34)CC2)cc1` [Example 12, ethyl 4-{[1-(3-cyano-1-methyl-2-oxo-1,2-dihydroquinolin-4-yl)piperidin-4-yl]oxy}benzoate], the IC50 stood at 12 nM.
Turning to `Cn1c(=O)c(C#N)c(N2CCC(C)(Oc3ccc(N)cc3)CC2)c2ccccc21` [Example 41, 4-[4-(4-aminophenoxy)-4-methylpiperidin-1-yl]-1-methyl-2-oxo-1,2-dihydroquinoline-3-carbonitrile], the IC50 worked out at 173 nM.
The value for `Cn1c(=O)c(C#N)c(N2CCC(Oc3ccc(-n4ccnc4)cc3)CC2)c2ccccc21` [Example 19, 4-{4-[4-(1H-imidazol-1-yl)phenoxy]piperidin-1-yl}-1-methyl-2-oxo-1,2-dihydroquinoline-3-carbonitrile] was 64 nM; that for `Cc1cccc(COC2CCN(c3c(C#N)c(=O)n(C)c4ccccc34)CC2)c1` [Example 108, 1-methyl-4-{4-[(3-methylphenyl)methoxy]piperidin-1-yl}-2-oxo-1,2-dihydroquinoline-3-carbonitrile] was 10 nM.
In turn, `Cn1c(=O)c(C#N)c(N2CCC(Oc3ccc(C(F)(F)F)cc3)CC2)c2ccc(N3CCCC3=O)cc21` [Example 86, 1-methyl-2-oxo-7-(2-oxopyrrolidin-1-yl)-4-{4-[4-(trifluoromethyl)phenoxy]piperidin-1-yl}-1,2-dihydroquinoline-3-carbonitrile] gave an IC50 of 32 nM.
In turn, `Cc1ccccc1OC1CCN(c2c(C#N)c(=O)n(C)c3ccccc23)CC1` [Example 14, 1-methyl-4-[4-(2-methylphenoxy)piperidin-1-yl]-2-oxo-1,2-dihydroquinoline-3-carbonitrile] displayed an IC50 of 14 nM.
